Consider ten molecules from patent US20130252930A1 (BIOMARIN PHARMACEUTICAL INC., priority 2010, published 2013).

SMILES strings stand for the structures. Like-named read-outs stand apart in the source and are kept apart here. Some results are limits rather than exact numbers.

The target of series [1] is T1, Cyp21 enzyme (Human HEK 293-Cyp21 stable transfected cells) (Homo sapiens, UniProt P08686).
T1 construct: expressed in transfected cells
T1 sequence (P08686 1-495): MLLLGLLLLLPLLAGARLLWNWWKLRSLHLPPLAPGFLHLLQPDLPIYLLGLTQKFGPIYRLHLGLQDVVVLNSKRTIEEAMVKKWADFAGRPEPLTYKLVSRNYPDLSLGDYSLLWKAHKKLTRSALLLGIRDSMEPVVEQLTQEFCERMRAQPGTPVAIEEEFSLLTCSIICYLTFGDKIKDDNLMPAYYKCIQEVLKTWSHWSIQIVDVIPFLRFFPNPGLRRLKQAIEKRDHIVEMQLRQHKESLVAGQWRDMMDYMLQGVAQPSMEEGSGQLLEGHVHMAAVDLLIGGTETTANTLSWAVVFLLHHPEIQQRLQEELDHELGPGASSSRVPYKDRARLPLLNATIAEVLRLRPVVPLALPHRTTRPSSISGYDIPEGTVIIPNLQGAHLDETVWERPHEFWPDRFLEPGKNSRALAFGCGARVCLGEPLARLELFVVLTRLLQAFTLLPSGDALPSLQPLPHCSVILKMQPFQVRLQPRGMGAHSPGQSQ
Put plainly: CYP21-HEK293 enzymatic assay (% inhibition at 100 nM) (Biological Example 10). In kind it is cell-based. The settings on record: HEK 293-Cyp21 cells. As for the experimental part: Proceeding using methods similar to those described in Biological Example 11, the percent inhibition at 100 nM was measured.
This assay was used to determine compound activity against Cyp21 enzyme. Human HEK 293-Cyp21 stable transfected cells (maintained in complete growth media DMEM+10% FBS, supplemented with 125 ug/mL Hygromycin) were seeded in a 96-well plate at 20,000 cells/well/100 uL in DMEM plus 10% FBS and allowed to attach overnight. The next day, 20 μL medium was carefully removed and 10 μL of 10× pre-made compounds in DMEM+10% FBS+10% methanol was transferred to the wells to final concentrations of 1000, 100, 10, 1, or 0.1 nM. Mock treatment was 1% methanol in growth media and the cells were left at 37° C., 5% CO2 for 5 hr. After the incubation, 10 μL of substrate progesterone (Sigma) was added to the wells to make a final concentration of 10 μM. The cells were incubated the cells at 37° C. for 20 hr. At the end of incubation, 90 μL of conditioned media was removed to measure DOC level by ELISA.
Preparation of the DOC ELISA: 100 μL of coating buffer (0.025M PBS pH 7.4) containing 200 ng/mL DOC-3-carboxymethyloxime-BSA (Steraloids. inc, Cat#3469-000) was added to each well of a 96-well plate and incubated overnight at 4° C. The next day, the plates were washed twice with 250 μl of wash solution (0.015M PBS pH 7.4 containing 0.05% Tween 20). After being washed, the wells were blocked with 250 μL blocking buffer (3% BSA in 0.025M PBS, pH 7.4) at 37° C. for 2 h. The plates were washed again 3 times as before, and then 90 μL of sample /standards (prepared in complete growth media) was added into the appropriate wells followed by 10 μL of antibody solution (1:450 rabbit anti-DOC in 0.6% BSA/PBS). The plates were incubated at room temperature for 2 h on a shaker. The contents of the wells were removed and the plate was washed 4 times. After the final wash, 100 μL of secondary antibody (1:12000 HRP-goat-anti-rabbit IgG conjugate 0.6% BSA/PBS) was added into each well. The plate was incubated at 30° C. for 45 min. The plate was washed again 4 times and 100 μL of TMB substrate solution was added to each well. The plate was incubated at room temperature for 10 min. 100 μL of stop solution was added to each well and the optical density was read at 450 nm.
The mean absorbance value for each sample was used to determine the corresponding concentration from the standard curve. Data was analyzed with “log(antagonist) vs response variable slope” under “non-linear regression analysis” using Prism5 software.

The subject of series [2] is rat Cyp11B enzyme (rat adrenal mitochondria). Put plainly: CYP11B enzymatic assay (% inhibition at 100 nM) (Biological Example 9). The settings on record: for Biological Example No. 9: CYP11B percent inhibition at 100 nM: 100 nM compound, cortisol by ELISA; for CYP11B enzymatic assay % inhibition at 100 nM (Biological Example No. 9): compound at 100 nM. In kind it is biochemical. The method in brief:
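Sprague Dawley rat adrenal mitochondria were incubated with compound at 100 nM, 0.5 mM NADPH and 0.1 μM 11-deoxycortisol (pH 7.4 Tris buffer) for 60 min at 37 °C. Cortisol was measured by ELISA and corrected by subtracting the no-NADPH background. % inhibition is relative to the no-compound reaction.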

Series [3] addresses T2, CYP17 (human testicular microsome) (Homo sapiens, UniProt P05093).
T2 construct: using microsomal fraction from human testis (Celsis Cat #S00110) as the enzyme source; tissue Celsis S00110; host or cells: human testis microsomal fraction
T2 sequence (P05093 1-508): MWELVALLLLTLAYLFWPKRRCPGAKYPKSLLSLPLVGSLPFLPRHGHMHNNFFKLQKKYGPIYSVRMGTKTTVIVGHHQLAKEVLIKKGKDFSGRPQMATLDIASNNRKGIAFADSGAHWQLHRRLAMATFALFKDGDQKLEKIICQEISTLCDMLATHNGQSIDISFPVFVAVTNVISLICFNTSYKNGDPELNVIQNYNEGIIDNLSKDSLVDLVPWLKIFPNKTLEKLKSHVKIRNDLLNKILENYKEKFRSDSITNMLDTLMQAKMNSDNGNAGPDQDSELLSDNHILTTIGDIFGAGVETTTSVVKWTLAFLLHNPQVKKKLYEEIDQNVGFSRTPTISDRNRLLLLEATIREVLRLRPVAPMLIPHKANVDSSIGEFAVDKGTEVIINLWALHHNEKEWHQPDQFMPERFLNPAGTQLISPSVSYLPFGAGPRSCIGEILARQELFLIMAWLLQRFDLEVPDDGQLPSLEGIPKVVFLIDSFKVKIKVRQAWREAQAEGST
Description: CYP17 enzymatic assay (% inhibition at 1 nM) (Biological Example 12). Type of series: biochemical. The settings on record: compound at 1 nM, read-out: CYP17 enzymatic assay % inhibition at 1 nM (Biological Example No. 12).

For series [4], the target named is T1, Cyp21 enzyme (Human HEK 293-Cyp21 stable transfected cells). Put plainly: CYP21-HEK293 enzymatic assay (IC50) (Biological Example 11). Type of series: cell-based. The settings on record: HEK 293-Cyp21 cells; read-out: CYP21-HEK293 enzymatic assay IC50 (Biological Example No. 11).
The target in series [5] is T2, CYP17 (human testicular microsome). Put plainly: CYP17 enzymatic assay (IC50) (Biological Example 4). Type of series: biochemical. The settings on record: human testicular microsome.
Description: The assays were performed in 96-well plates. Typical assays were carried out in total 100 μL volume that included test compounds at designated concentrations, 1× reaction buffer, 0.5 mM NADPH, 1 μM 17α-hydroxypregnenolone, and 2.5 μL of diluted human testicular microsome (Celsis. Cat #S00110). Reaction without test compound served as positive control. Reactions were allowed to incubate at 37° C. for 90 minutes with gentle shaking. The reaction was stopped by directly applying the enzymatic reaction mixture to ELISA plate for evaluation of DHEA concentration according to manufacturer's protocol (IBL America). A standard curve (OD450 vs. DHEA concentration) was generated using purified DHEA.
Series [6] in a line: Human liver microsome stability assay (Biological Example 8b). The settings on record: liver microsomes, pH 7.4.
Description: The reaction was started with addition of excess NADPH (5 mg/mL, 15 μL in 0.1 M potassium phosphate buffer, 1.0 mM EDTA, pH 7.4), the total volume is 45 μL (compound final concentration was 1 μM). […] 50 μL of the supernatant was transferred from each well into a 96-well sample plate containing 50 μL of ultra-pure water (Millipore) for LC-MS/MS analysis.
Series [7] deals with T2, CYP17 (human testicular microsome). Description: CYP17 enzymatic assay (% inhibition at 10 nM), version 1 (Biological Example 5). Type of series: biochemical. The settings on record: 10 nM compound, DHEA by ELISA, read-out: Biological Example No. 5: CYP17 percent inhibition at 10 nM (version 1).
[8] abbreviates: 100 nM compound, read-out: Biological Example No. 10: CYP21-HEK293 percent inhibition at 100 nM.
[9] abbreviates: compound at 100 nM, read-out: CYP21-HEK293 enzymatic assay % inhibition at 100 nM (Biological Example No. 10).
[10] abbreviates: read-out: CYP17 enzymatic assay IC50 (Biological Example No. 4).
Setting [11] is: DHEA by ELISA, read-out: Biological Example No. 4: CYP17 enzymatic assay IC50.

For `C[C@]12CCC(=O)NC=C1CCC1C2CC[C@]2(C)C(n3cnnn3)=CCC12` (stereo partly drawn) [Compound 156, (5aR,7aS)-5a,7a-dimethyl-8-(1H-tetrazol-1-yl)-4,5,5a,5b,6,7,7a,10,10a,10b,11,12-dodecahydrocyclopenta[5,6]naphtho[2,1-c]azepin-3(2H)-one], in series [1] (setting [8]), the inhibition at 0.1 µM was below 30%. Also, in series [2], the “Biological Example No. 9: CYP11B percent inhibition at 100 nM” value is “U (U means the compound had a percent inhibition of greater than or equal to 32%)”.

For `C[C@]12CC[C@H]3[C@@H](CC=C4C[C@H](NC(=O)C5CC5)CC[C@@]43C)C1=CC=C2n1ccnc1` [Compound 246, N-((3R,10R,13S)-17-(1H-imidazol-1-yl)-10,13-dimethyl-2,3,4,7,8,9,10,11,12,13-decahydro-1H-cyclopenta[a]phenanthren-3-yl)cyclopropanecarboxamide], the inhibition at 0.1 µM in series [1] (setting [9]) was below 30%. For the same molecule, the “CYP11B enzymatic assay % inhibition at 100 nM (Biological Example No. 9)” value in series [2] was “U (U means the compound had a percent inhibition of greater than or equal to 32%)”. The inhibition at 0.001 µM in series [3] was in the range of 10 to 50%.

`CON=C1C=C2CCC3C4=CC=C(c5cccnc5)[C@@]4(C)CCC3[C@@]2(C)CC1` (stereo partly drawn) [Compound 287, (10R,13S)-10,13-dimethyl-17-(pyridin-3-yl)-6,7,8,9,10,11,12,13-octahydro-1H-cyclopenta[a]phenanthren-3(2H)-one O-methyl oxime]: in series [1] (setting [9]), the inhibition at 0.1 µM was at least 30%. Moreover, the IC50 in series [4] was above 100 nM; in series [5] (setting [10]), below 11 nM. Besides, the half-life at 1 μM in series [6] was above 50 min. Moreover, in series [3], the inhibition at 0.001 µM was 10 to 50%.

For the molecule `CC(=O)N[C@@H]1CC[C@@]2(C)C(=CC[C@H]3C4=CC=C(n5ccnc5)[C@@]4(C)CC[C@@H]32)C1` [Compound 245, N-((3R,10R,13S)-17-(1H-imidazol-1-yl)-10,13-dimethyl-2,3,4,7,8,9,10,11,12,13-decahydro-1H-cyclopenta[a]phenanthren-3-yl)acetamide], the inhibition at 0.1 µM in series [1] (setting [9]) was below 30%. For the same molecule, in series [2], the “CYP11B enzymatic assay % inhibition at 100 nM (Biological Example No. 9)” value is “T (T means the compound had a percent inhibition of less than 32% when tested at 100 nM)”. Moreover, in series [3], the inhibition at 0.001 µM lay within 10 to 50%.

With `COC(=O)NC1CC[C@@]2(C)C(=CCC3C2CC[C@]2(C)C(n4ccnc4)=CCC32)C1` (stereo partly drawn) [Compound 239, methyl ((10R,13S)-17-(1H-imidazol-1-yl)-10,13-dimethyl-2,3,4,7,8,9,10,11,12,13,14,15-dodecahydro-1H-cyclopenta[a]phenanthren-3-yl)carbamate], in series [1] (setting [9]), the inhibition at 0.1 µM is below 30%. Further, the “CYP11B enzymatic assay % inhibition at 100 nM (Biological Example No. 9)” value in series [2] is recorded as “T (T means the compound had a percent inhibition of less than 32% when tested at 100 nM)”. In addition, the IC50 in series [5] (setting [10]) is below 11 nM. Also, the inhibition at 0.001 µM in series [3] is above 50%.

As to `COc1cncc(C2=CC=C3[C@@H]4CCC5=CC(=O)N(C)CC[C@]5(C)[C@H]4CC[C@]23C)c1` [Compound 159], the inhibition at 0.1 µM in series [1] (setting [8]) was at least 30%. In series [5] (setting [11]), the IC50 was below 11 nM. Also, the half-life at 1 μM in series [6] lay in the range of 1 to 50 min. Moreover, the inhibition at 0.01 µM in series [7] was above 80%.

As for `CN1CC=C2CC[C@@H]3[C@H](CC[C@]4(C)C(n5ccnc5)=CC[C@@H]34)[C@@]2(C)CC1` [Compound 151], the inhibition at 0.1 µM in series [1] (setting [8]) was below 30%. For the same molecule, in series [2], the “Biological Example No. 9: CYP11B percent inhibition at 100 nM” value is listed as “T (T means the compound had a percent inhibition of less than 32% when tested at 100 nM)”. Also, the inhibition at 0.01 µM in series [7] was 1 to 50%.

With `C[C@]12CC[C@H]3[C@@H](CCN4CCCCC[C@]34C)[C@@H]1CC=C2c1cccnc1` [Compound 44, (11aR,13aS)-11a,13a-dimethyl-1-(pyridin-3-yl)-3a,3b,4,5,7,8,9,10,11,11a,11b,12,13,13a-tetradecahydro-3H-azepino[2,1-a]cyclopenta[f]isoquinoline], the inhibition at 0.1 µM in series [1] (setting [8]) was below 30%. The “Biological Example No. 9: CYP11B percent inhibition at 100 nM” value in series [2] is given as “na (“na” means the compound was not active under the conditions tested)”. Besides, the inhibition at 0.01 µM in series [7] fell in the range of 1 to 50%.

Turning to `C[C@]12CCCC(=O)CC1=CCC1[C@@H]2CC[C@]2(C)C(n3ccnc3)=CC[C@@H]12` (stereo partly drawn) [Compound 107, (3aS,10aR,10bS,12aS)-1-(1H-imidazol-1-yl)-10a,12a-dimethyl-3,3a,3b,4,8,9,10,10a,10b,11,12,12a-dodecahydrocyclohepta[a]cyclopenta[f]naphthalen-7(6H)-one], the inhibition at 0.1 µM in series [1] (setting [8]) was at least 30%. In addition, in series [5] (setting [11]), the IC50 was below 11 nM. Besides, in series [6], the half-life at 1 μM lay within 1 to 50 min. Besides, the inhibition at 0.01 µM in series [7] was above 80%.

As for `CN1CC=C2CC[C@@H]3[C@H](CC[C@]4(C)C(c5cccnc5)=CC[C@@H]34)[C@@]2(C)CC1` [Compound 147, (5aR,7aS)-2,5a,7a-trimethyl-8-(pyridin-3-yl)-2,3,4,5,5a,5b,6,7,7a,10,10a,10b,11,12-tetradecahydrocyclopenta[5,6]naphtho[2,1-c]azepine], the inhibition at 0.1 µM in series [1] (setting [8]) was below 30%. Besides, the “Biological Example No. 9: CYP11B percent inhibition at 100 nM” value in series [2] is on record as “na (“na” means the compound was not active under the conditions tested)”. Also, the inhibition at 0.01 µM in series [7] lay in the range of 1 to 50%.
